Results from the METLIN SMRT retention time set (Domingo-Almenara et al. 2019).

Assay: gradient 5% acetonitrile 3 min, to 50% in 2 min, to 85% in 15 min, held 3 min, 100 µL/min
Conditions: column: Zorbax Extend-C18 2.1 x 50 mm; eluents: water / acetonitrile, 0.1% formic acid
In short: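 Mixtures of ~100 pure standards were chromatographed on a Zorbax Extend-C18 column (2.1 × 50 mm, 1.8 μm) at 100 μL/min using water and acetonitrile, each with 0.1% formic acid. Detection used a quadrupole time-of-flight mass spectrometer in positive and negative ionization mode, and data collection spanned 3 months. Retention time was obtained from adduct peaks picked computationally and each checked manually.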

Row | RP-LC retention time [s] | SMILES
1 | 728 | Cc1cnn(CCC(=O)N2CCCCCCNC(=O)[C@@H]3CCCC[C@@H]32)c1
2 | 1080 | Cc1ccc(Cn2c(N3CCCC(C(=O)Nc4cccc(C)c4)C3)nc3ccsc3c2=O)cc1 (centres undefined)
3 | 643 | Cc1ccnc(NC(=O)NCCCSc2nccc(C)n2)n1
4 | 642 | CNCc1ccc(-c2ccccc2Cl)o1
5 | 557 | Cc1cnc(-c2ccncc2)n1C1CCCN(S(=O)(=O)c2cn(C)cn2)C1 (centres undefined)
6 | 694 | CCNC(=O)C1CCc2sc(C(=O)N3CCCCC3)cc2C1 (centres undefined)
7 | 975 | COC(=O)c1ccc2c(=O)n(-c3ccc(C)c(F)c3)c(N3CCOCC3)nc2c1
8 | 594 | O=C(c1ccc2nc[nH]c2c1)N1CCN(c2cc(-c3cccs3)[nH]n2)CC1
9 | 669 | CCCNC(=O)C1CCCN(c2nc3ncn(CC(=O)NCc4ccccc4)c(=O)c3s2)C1 (centres undefined)
10 | 910 | CC(=O)Nc1ccc(NC(=O)C2CCCN(c3nc4ccccc4nc3C(F)(F)F)C2)cc1 (centres undefined)
11 | 896 | CCNC(=O)N1CCCC(c2cccc(C(=O)NCc3ccc(C(F)(F)F)cc3)c2)C1 (centres undefined)
12 | 750 | CCOc1ccccc1CNC(=O)C1CCN(S(=O)(=O)c2ccc3[nH]c(=O)ccc3c2)CC1
13 | 1090 | CN(C)S(=O)(=O)c1ccc(C(=O)OCc2cc(-c3ccc(Cl)cc3)on2)cc1
14 | 748 | CCC(C)NC(=O)C1CCN(C(=O)Nc2ccc(NC(=O)Nc3ccccc3)cc2)CC1 (centres undefined)
15 | 1070 | O=C(Nc1ccccc1Br)N1CCCC1c1nc(-c2ccc(F)cc2F)no1 (centres undefined)
16 | 591 | O=C(NC1CCN(Cc2ccccc2)CC1)C1CC(=O)N(c2n[nH]c3cccc(F)c23)C1 (centres undefined)
17 | 738 | COc1ccc(CC(=O)N2C[C@@H]3C[C@H]2C[C@@H]3NC(=O)c2ccccc2)c(Cl)c1
18 | 1010 | CCCCCn1c(=O)c2c(nc3n2CCN3c2ccc(OC)cc2)n(C)c1=O
19 | 1080 | CCCc1ccc(S(=O)(=O)Nc2ccc3nc(S(=O)(=O)CCC)sc3c2)cc1
20 | 893 | O=C(NCc1ccccc1Cl)C(=O)NCC1CCN(C(=O)Oc2ccccc2)CC1
21 | 793 | Cc1ccc(C)c2sc(N(C)CC(=O)O)nc12
22 | 781 | CCOc1ccc(-c2cn3ccn(-c4ccc(OC)c(OC)c4)c(=O)c3n2)cc1

Row | RP-LC retention time [s] | SMILES
23 | 996 | CCN(CC)S(=O)(=O)c1ccc(NC(=O)N2CCCC(C(=O)Nc3cccc(Cl)c3)C2)s1 (centres undefined)
24 | 573 | CCCN1CCN(CCCNC(=O)C2CCCN(c3nc4cccnc4s3)C2)CC1 (centres undefined)
25 | 632 | Cc1nc(-c2ccccc2)nn1C1CCN(S(=O)(=O)c2cn(C)cn2)C1 (centres undefined)
26 | 955 | CCOC(=O)c1noc2ncnc(N3CCN(c4ccc(OC)cc4)CC3)c12
27 | 1090 | COc1cc(OC)cc(-c2nc(-c3cn(Cc4ccc(C)cc4)nn3)no2)c1
28 | 606 | Cc1cc(NC(=O)c2cnccn2)sn1
29 | 572 | O=C(C1CCCN1)N1CCC(OCc2nc(-c3cccnc3)no2)CC1 (centres undefined)
30 | 995 | COc1ccc(-c2ccc(=O)n(Cc3nc(-c4ccc(F)cc4)no3)n2)cc1
31 | 907 | Cc1ccc(-n2c(=O)n(CC(=O)Nc3ccc(C)cc3C)c3cccnc32)cc1
32 | 971 | COc1cccc(C2NC(=O)NC(C)=C2C(=O)OC2CCCCCC2)c1OC (centres undefined)
33 | 978 | O=C(Cn1cc(-c2ccccc2)c(N2CCOCC2)n1)N1CCN(c2ccccc2F)CC1
34 | 864 | CCOC(=O)c1[nH]c(C)c(CCC(=O)N2CCC(C(=O)NCCC3=CCCCC3)CC2)c1C
35 | 818 | COc1ccc(CC(=O)N(C)CC2(C)CCOCC2)cc1Cl
36 | 597 | COCCN1CCC2(CC1)CN(Cc1cc(OC)ccc1OC)Cc1ccccc1O2
37 | 629 | CCOC(=O)C1CCC(CNC(=O)N2CCCn3nc(-c4cccnc4)cc3C2)CC1 (centres undefined)
38 | 597 | Cc1ccc(C(=O)N2CCC(c3nc(-c4ccncc4)n[nH]3)CC2)s1
39 | 597 | CCOC(=O)c1[nH]c(C)c(CCC(=O)NCCN2CCOCC2)c1C
40 | 873 | O=C(C1=CN(c2ccc3c(c2)OCCO3)c2cc(Cl)ccc2S1(=O)=O)N1CCCCC1
41 | 808 | Cc1cccc(Nc2nc(C(=O)NCCc3ccco3)nc3ccccc23)c1
42 | 814 | CCC(C)NC(=O)Cn1cccc(-c2nc(-c3ccc(C)cc3)no2)c1=O (centres undefined)
43 | 685 | COc1ccc(OC)c(S(=O)(=O)N2CCCC3(CC2)CNC(=O)O3)c1 (centres undefined)
44 | 1080 | Cc1ccc(-n2c(N3CCCC(C(=O)Nc4ccc(Cl)cc4)C3)nc3ccsc3c2=O)cc1 (centres undefined)

Row | RP-LC retention time [s] | SMILES
45 | 1270 | COc1ccc(-c2noc(Cc3nc(-c4ccc(Cl)cc4)cs3)n2)cc1
46 | 663 | CC(C)NC(=O)c1ccc(-c2ccc(N3CCSCC3)nc2)cc1
47 | 772 | NS(=O)(=O)c1ccc(NC(=O)Nc2ccc(F)cc2)cc1
48 | 1060 | CCc1nc2cc(-c3noc(-c4sc(C)nc4C)n3)ccc2o1
49 | 823 | Cc1nc(N2CCN(c3ccccn3)CC2)nc2c1C(=O)CC(c1ccc(Cl)cc1)C2 (centres undefined)
50 | 593 | Cc1cc(C)c2nc(C)cc(C(=O)N3CCN(c4ccccn4)CC3)c2c1
51 | 662 | Cc1noc(C)c1CCC(=O)N1CCCC1CCc1ncc(C)n1CC1CC1 (centres undefined)
52 | 885 | Cc1cccc(-c2nc3sc(N4CCCCC4)nn3c2NC(=O)c2ccnn2C)c1
53 | 698 | COc1ccc(OC)c(N2C(=O)c3cccnc3C2Nc2ccc(C(C)=O)cc2)c1 (centres undefined)
54 | 644 | Cn1cccc(C(=O)NCCCn2cccc2)c1=O
55 | 877 | Cc1ccc2c(c1)N(Cc1ccccc1C)N=C(C(=O)N1CCOCC1)S2(=O)=O
56 | 799 | Cc1ccc(NC(=O)C2CCc3sc(C(=O)N(C)C)cc3C2)c(C)c1 (centres undefined)
57 | 946 | O=C(NCc1cccc(F)c1)c1cc(N2CCCC2)n2nccc2n1
58 | 787 | O=S(=O)(NCC(c1cccnc1)c1c[nH]c2ccccc12)c1ccc(Cl)c(Cl)c1 (centres undefined)
59 | 640 | Cc1nc(CCNC(=O)Cc2ccsc2)no1
60 | 857 | CCc1ccc(CNC(=O)CC2CCN(C(=O)c3[nH]c(C)cc3C)CC2)cc1
61 | 920 | CCCC(=O)Nc1nc2ccc(CCC(=O)Nc3cc(Cl)c(OC)cc3OC)cc2s1
62 | 720 | CCn1cc(C)c(C(=O)O)c1CC(=O)N1CCCCCC1
63 | 709 | O=C(NC1CC1)[C@@H]1C[C@H](Oc2ccccc2)CN1C(=O)c1ccoc1
64 | 546 | Cc1cc(NC(=O)CN2CCc3nc(NC(=O)C4CC4)sc3C2)no1
65 | 1130 | COc1ccc(NC(=O)Cn2nc(N3CCC(C)CC3)c3ccccc3c2=O)c(OC)c1
66 | 712 | CCC(=O)Nc1ccc(S(=O)(=O)NC2CCN(c3ccc(=O)n(CC4CC4)n3)C2)cc1 (centres undefined)

Row | RP-LC retention time [s] | SMILES
67 | 704 | CCc1ccc(NC(=O)Nc2ccc(NC(=O)N3CCC(C(=O)NC)CC3)cc2)cc1
68 | 690 | CC(NC(=O)C1CCN(S(=O)(=O)c2ccc(C#N)cc2)CC1)C(=O)N1CCCc2ccccc21 (centres undefined)
69 | 732 | CC(C)S(=O)(=O)c1ccc(C(=O)Nc2onc3c2CCCC3)cc1
70 | 583 | CC(C)Oc1cncc(C(N)=O)c1
71 | 1210 | CCN(C(=O)c1ccccc1OC)c1nc(-c2ccccc2)cs1
72 | 887 | CCn1cc(S(=O)(=O)Nc2ccc(C)c(C)c2)c2cccnc21
73 | 884 | CCCn1cc(CCNS(=O)(=O)c2ccc(F)c(F)c2)c2cccnc21
74 | 801 | O=C(O)c1cn(Cc2ccccc2F)c(=O)c2ccccc12
75 | 640 | COc1ccc(NS(=O)(=O)c2cc3n(c2)CCCNC3=O)c(C)c1
76 | 712 | O=C(CCNc1c(-c2cccc(F)c2)nc2cnccn12)NCc1ccc2c(c1)OCO2
77 | 592 | Cc1cc2c(N3CCCC(C(=O)NCc4ccc(N5CCC(C)CC5)cc4)C3)nccc2s1 (centres undefined)
78 | 1130 | Cc1ccccc1NC(=O)C1CCCN(S(=O)(=O)c2cc(-c3noc(C4CCC4)n3)cs2)C1 (centres undefined)
79 | 612 | CC(C)=C1C(=O)Nc2ccc(S(=O)(=O)N3CCN(c4ccccn4)CC3)cc21
80 | 671 | COc1cccc(S(=O)(=O)N2CCCN(C3CCN(Cc4ccccc4)C3=O)CC2)c1 (centres undefined)
81 | 790 | Cc1ccc(C)c(NC(=O)C2CCN(S(=O)(=O)c3cc(C(=O)N(C)C)cs3)CC2)c1
82 | 1230 | CCOc1ccccc1C(=O)n1nc(C)c(S(=O)(=O)N2CCC(C)CC2)c1C
83 | 564 | CNc1nc(N2CCNC(=O)C2)nc2ccccc12
84 | 1140 | Cc1ccc(Cl)cc1NC(=O)Cn1c(C)nc2c(sc3nc(-c4ccccc4)ccc32)c1=O
85 | 626 | O=C(CN1C(=O)C2CCCCN2c2ccc(C(=O)N3CCCC3)cc21)NCc1ccccn1 (centres undefined)
86 | 1040 | O=C(Cn1cccc1-c1nc(-c2ccc(Cl)cc2)cs1)N1CCOCC1
87 | 770 | CSc1nnc(-c2nn(C)c3c2CN(C(=O)c2ccc(C)c(C)c2)CC3)n1C
88 | 1330 | COc1ccc(Cl)cc1NC(=O)c1c(O)c2cccnc2n(-c2cccc(F)c2)c1=O

Row | SMILES | RP-LC retention time [s]
89 | Cc1ccc2cc(CCC(=O)N3CCC4(CC3)OCCO4)c(=O)[nH]c2c1 | 688
